# According to ChEMBL document CHEMBL1201862, “PubChem BioAssay data set” (2004):
# The source made the active and inactive calls.
# Tests used:
# [1] = biological target: T1, Apoptotic protease-activating factor 1 (Homo sapiens, UniProt O14727); type: functional
# T1 sequence (O14727 whole entry): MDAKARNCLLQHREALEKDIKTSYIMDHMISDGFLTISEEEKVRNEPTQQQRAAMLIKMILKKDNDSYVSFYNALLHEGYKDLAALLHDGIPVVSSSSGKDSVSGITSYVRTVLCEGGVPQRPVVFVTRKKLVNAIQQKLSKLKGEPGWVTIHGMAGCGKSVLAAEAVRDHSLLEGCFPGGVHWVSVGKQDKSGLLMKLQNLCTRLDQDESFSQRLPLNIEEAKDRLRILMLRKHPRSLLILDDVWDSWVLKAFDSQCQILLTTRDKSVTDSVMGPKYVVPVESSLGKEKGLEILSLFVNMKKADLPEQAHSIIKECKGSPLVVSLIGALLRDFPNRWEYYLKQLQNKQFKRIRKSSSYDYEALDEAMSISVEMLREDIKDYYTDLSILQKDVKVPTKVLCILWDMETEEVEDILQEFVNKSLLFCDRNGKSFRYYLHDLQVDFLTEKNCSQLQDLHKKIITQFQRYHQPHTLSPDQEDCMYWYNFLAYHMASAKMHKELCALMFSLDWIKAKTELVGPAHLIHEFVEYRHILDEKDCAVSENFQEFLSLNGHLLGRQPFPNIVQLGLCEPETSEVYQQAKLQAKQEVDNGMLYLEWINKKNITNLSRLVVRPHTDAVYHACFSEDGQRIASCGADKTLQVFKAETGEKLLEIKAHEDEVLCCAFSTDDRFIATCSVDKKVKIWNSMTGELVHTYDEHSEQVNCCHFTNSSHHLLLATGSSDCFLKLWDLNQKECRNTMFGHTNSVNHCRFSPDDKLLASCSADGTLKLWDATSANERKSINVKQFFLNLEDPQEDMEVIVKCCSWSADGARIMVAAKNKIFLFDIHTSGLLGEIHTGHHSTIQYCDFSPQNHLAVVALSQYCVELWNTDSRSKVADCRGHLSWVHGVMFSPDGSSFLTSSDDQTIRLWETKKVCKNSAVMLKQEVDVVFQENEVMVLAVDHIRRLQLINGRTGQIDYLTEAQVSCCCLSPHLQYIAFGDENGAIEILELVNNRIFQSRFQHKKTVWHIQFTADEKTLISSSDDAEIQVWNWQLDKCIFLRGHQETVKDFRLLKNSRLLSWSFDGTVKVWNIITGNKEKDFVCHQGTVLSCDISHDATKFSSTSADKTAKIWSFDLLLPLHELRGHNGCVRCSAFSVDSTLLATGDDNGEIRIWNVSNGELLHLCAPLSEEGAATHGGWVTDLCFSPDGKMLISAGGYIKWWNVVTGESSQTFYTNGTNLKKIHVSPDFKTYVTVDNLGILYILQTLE
# BJ [2] = test: BJ-TERT fibroblast viability loss – cell-based, RAS-independent, luminescence, dose response (AID 1933); type: functional; conditions: Homo sapiens
# BJ [3] = test: cells; type: functional, cell-based; conditions: Homo sapiens
# BJ [4] = test: BJ-TERT-LT-ST fibroblast viability loss – cell-based, RAS-independent, luminescence, dose response (AID 1935); type: functional; conditions: Homo sapiens;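 also: BJ fibroblasts immortalized with TERT plus LT and ST oncogenes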
# [5] = DRD fibroblast viability loss – cell-based, non-viral oncogenic, luminescence, dose response (AID 1934); type: functional; conditions: Homo sapiens
# [6] = biological target: T2, Microphthalmia-associated transcription factor (Homo sapiens, UniProt O75030); test: reducers of TRPM1 reporter luminescence, concentration series – cell-based, SK-MEL-5, cherry-picked, set 3, MITF inhibitor project, dose response (AID 493073); type: functional;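 also: SK-MEL-5 melanoma cells with luciferase driven by the MITF target TRPM1 promoter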
# T2 sequence (O75030 whole entry): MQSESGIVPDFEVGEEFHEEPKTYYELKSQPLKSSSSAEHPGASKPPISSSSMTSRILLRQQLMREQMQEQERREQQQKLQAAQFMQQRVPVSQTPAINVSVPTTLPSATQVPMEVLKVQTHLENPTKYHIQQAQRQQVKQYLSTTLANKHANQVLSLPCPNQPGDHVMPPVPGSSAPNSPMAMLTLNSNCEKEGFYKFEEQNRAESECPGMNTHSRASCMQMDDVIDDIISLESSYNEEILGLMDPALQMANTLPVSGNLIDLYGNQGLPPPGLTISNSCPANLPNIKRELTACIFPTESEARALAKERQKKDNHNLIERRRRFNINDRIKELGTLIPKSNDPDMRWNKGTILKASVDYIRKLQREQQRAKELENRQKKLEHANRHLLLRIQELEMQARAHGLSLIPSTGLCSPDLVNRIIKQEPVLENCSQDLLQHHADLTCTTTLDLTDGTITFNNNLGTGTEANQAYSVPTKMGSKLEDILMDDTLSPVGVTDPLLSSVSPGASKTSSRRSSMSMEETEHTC
# BJ [7] = test: growth inhibition of engineered Ras-driven BJ cells – cell-based, alamar blue fluorescence, cherrypicked samples, dose response (AID 2631); type: functional; conditions: Homo sapiens;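 also: confirmatory dose-response assay in RAS-dependent BJ fibroblasts engineered with TERT, LT and ST, with cytotoxicity read by fluorescence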
# [8] = P. falciparum Dd2 growth inhibitors, dose response, SYBR Green, cherry-picked samples (AID 1159567); type: functional, cell-based
# [9] = toxicity to human hepatoma HepG2 cells – cell-based, cherry-picked samples, cytotoxicity control, dose response (AID 1159577); type: functional
# [10] = biological target: T3, Endoribonuclease toxin MazF (Escherichia coli K-12, UniProt P0AE70); test: activation of MazEF endoribonuclease cleavage – biochemical, fluorescence, single-stranded RNA substrate, uHTS hits, dose response (AID 588481); type: functional
# T3 sequence (P0AE70 whole entry): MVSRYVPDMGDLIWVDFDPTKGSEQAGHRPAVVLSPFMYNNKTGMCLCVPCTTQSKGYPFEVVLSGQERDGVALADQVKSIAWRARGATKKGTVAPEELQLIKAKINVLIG
# [11] = biological target: T3, Endoribonuclease toxin MazF; test: substrate-only fluorescence increase artefacts – biochemical, single-stranded RNase substrate, counter-screen for MazEF activator project, dose response (AID 588502); type: functional
# [12] = biological target: T4, Histone-lysine N-methyltransferase NSD2 (Homo sapiens, UniProt O96028); type: biochemical
# T4 sequence (O96028 whole entry): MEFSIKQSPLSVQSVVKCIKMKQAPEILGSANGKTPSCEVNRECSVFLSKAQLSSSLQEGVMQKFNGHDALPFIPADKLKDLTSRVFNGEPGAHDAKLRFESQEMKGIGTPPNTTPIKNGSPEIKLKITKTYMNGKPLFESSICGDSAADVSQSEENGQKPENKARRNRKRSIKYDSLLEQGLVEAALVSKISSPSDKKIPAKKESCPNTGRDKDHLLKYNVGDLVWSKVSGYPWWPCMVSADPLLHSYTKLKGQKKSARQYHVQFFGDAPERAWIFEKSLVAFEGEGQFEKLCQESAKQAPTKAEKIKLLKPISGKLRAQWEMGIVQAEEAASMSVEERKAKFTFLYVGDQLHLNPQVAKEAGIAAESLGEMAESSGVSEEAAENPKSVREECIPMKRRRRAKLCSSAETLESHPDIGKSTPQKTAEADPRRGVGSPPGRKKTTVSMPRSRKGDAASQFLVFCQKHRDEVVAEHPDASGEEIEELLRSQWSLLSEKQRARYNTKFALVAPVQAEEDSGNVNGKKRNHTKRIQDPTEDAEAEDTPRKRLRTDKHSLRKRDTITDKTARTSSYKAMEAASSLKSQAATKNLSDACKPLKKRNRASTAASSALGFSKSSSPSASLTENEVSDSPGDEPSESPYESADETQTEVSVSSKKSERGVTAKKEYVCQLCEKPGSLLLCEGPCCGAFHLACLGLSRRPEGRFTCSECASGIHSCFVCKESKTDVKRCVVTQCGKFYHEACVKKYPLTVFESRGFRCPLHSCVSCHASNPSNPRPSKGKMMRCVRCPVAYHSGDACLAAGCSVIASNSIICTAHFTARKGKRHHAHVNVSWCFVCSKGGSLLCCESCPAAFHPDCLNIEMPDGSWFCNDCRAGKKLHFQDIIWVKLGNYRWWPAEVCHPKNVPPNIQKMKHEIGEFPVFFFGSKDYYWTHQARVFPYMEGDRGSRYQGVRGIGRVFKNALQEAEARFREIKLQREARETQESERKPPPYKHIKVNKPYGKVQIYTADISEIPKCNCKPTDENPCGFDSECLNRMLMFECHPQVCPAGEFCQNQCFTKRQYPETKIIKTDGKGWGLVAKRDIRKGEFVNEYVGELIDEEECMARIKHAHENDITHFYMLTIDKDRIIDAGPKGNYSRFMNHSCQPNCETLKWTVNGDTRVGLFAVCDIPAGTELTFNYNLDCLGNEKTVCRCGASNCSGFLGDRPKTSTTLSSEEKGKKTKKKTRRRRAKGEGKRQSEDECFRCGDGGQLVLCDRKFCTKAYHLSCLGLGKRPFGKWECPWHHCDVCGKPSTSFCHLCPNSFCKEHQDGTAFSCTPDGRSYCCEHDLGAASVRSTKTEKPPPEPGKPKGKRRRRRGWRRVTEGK
# Paired box protein Pax-8 = Paired box protein Pax-8 (Homo sapiens, UniProt Q06710); test: PAX8 transcriptional activity inhibition in RMG-I – RMG-I cells, luciferase, cherry-pick, dose response (AID 687027); type: functional, cell-based;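 also: luciferase reporter driven by Pax8 target thyroperoxidase promoter measured by SteadyGlo luminescence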
# [13] = OVCAR-3 cell viability loss – plate reader, dry powder samples, PAX8 inhibitor project, dose response (AID 743044); type: functional, cell-based
# [14] = biological target: FAD-linked sulfhydryl oxidase ALR (Homo sapiens, UniProt P55789); test: ALR-catalysed DTT oxidation blockers – biochemical, H2O2 detection, luminescence, cherry-pick, dose response (AID 493248)
# Caspase-6 = biological target: T5, Caspase-6 (Homo sapiens, UniProt P55212); test: inhibition of CASP6 peptide cleavage – biochemical, VEID-R110 fluorescence, cherry-pick, dose response (AID 720632)
# T5 sequence (P55212 whole entry): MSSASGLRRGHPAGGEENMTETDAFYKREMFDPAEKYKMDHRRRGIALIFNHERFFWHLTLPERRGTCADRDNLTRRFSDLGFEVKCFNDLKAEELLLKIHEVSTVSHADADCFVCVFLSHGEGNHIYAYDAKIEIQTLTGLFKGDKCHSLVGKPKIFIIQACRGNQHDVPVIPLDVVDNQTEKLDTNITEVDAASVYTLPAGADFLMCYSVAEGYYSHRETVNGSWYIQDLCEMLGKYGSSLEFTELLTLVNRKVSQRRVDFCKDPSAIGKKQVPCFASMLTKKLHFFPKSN
# Sequence of Paired box protein Pax-8 (Q06710 whole entry): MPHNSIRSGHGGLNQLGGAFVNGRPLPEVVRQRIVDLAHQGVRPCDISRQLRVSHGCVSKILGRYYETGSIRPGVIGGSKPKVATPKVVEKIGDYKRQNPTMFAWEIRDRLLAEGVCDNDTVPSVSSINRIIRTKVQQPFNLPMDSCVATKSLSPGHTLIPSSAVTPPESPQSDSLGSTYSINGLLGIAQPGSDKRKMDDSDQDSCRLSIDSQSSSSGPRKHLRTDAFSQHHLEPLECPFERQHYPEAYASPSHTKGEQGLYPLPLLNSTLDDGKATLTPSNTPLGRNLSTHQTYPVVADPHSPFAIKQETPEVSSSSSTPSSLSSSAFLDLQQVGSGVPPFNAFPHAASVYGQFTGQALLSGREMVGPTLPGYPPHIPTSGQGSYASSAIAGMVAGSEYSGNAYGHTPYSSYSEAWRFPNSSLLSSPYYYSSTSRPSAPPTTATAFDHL
# Sequence of FAD-linked sulfhydryl oxidase ALR (P55789 whole entry): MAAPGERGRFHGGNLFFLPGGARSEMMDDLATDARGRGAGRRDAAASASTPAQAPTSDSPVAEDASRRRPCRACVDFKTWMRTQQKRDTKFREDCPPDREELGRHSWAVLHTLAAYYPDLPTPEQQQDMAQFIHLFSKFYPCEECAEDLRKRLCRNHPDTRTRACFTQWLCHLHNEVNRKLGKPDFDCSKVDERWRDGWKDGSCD
compound,measurement,setting,value
CCOc1ccc(NC(=O)CN(C)C(=O)c2ccc(COc3ccccc3)cc2)cc1OCC,IC50,[1],> 100 µM (inactive)
CC(=O)c1cccc(NC(=O)/C=C/c2ccc([N+](=O)[O-])s2)c1,EC50,BJ [2],4.44 µM (active)
same,EC50,BJ [3],> 150 µM (inconclusive)
same,EC50,BJ [4],4.95 µM (inconclusive)
same,EC50,[5],5.53 µM (active)
same,AC50,[6],7.16 µM (active)
same,EC50,BJ [7],0.545 µM (inconclusive)
O=C(c1ccc2c(c1)OCO2)N1C[C@@H]2N[C@H](C1)[C@@H]2c1ccc(/C=C/c2ccccc2)cc1,AC50,[8],4.03 µM (active)
same,AC50,[9],11.5 µM (active)
COc1ccccc1N1C(=O)S/C(=C\c2cc(C)n(C)c2C)C1=O,EC50,[10],> 99 µM (inactive)
same,EC50,[11],30.6 µM (inactive)
CCN(CC)CCNC(=O)c1ccc(CS(=O)(=O)c2ccccc2C)o1,AC50,[12],> 20 µM (inactive)
N#Cc1ccc(-c2ccc([C@@H]3[C@@H]4CN(C(=O)c5ccc6c(c5)OCO6)C[C@H]3N4)cc2)cc1,AC50,Paired box protein Pax-8,8.39 µM (active)
same,AC50,[13],29.1 µM (active)
NNS(=O)(=O)c1ccc2c(c1)Cc1cc(S(=O)(=O)NN)ccc1-2,AC50,[14],0.079 µM (active)
same,EC50,[10],89.5 µM (inactive)
same,EC50,[11],4.48 µM (active)
same,AC50,Caspase-6,15.8 µM (active)
